Where a name gives a salt, the structure may show the parent alone.
What was measured:
Conditions in all cases: incubation time: 27 h, anaerobic, 37 °C
[1] = system: Klebsiella aerogenes DSM 30053; assay: growth (OD595) fold change vs plate DMSO controls (fold change (ratio)); higher = more growth
[2] = system: Ruminococcus gnavus DSM 108212; assay: as above
[3] = system: Klebsiella aerogenes DSM 30053; assay: fold change of Histamine concentration vs plate DMSO controls (fold change (ratio)); higher = more amine produced
Description: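 Dose-response follow-up: bacteria (E. coli IAI1, K. aerogenes DSM 30053, C. sporogenes DSM 1664, R. gnavus DSM 108212) were grown anaerobically in mGAM at 37 °C for 27 h with compound at 0.6125-20 µM. Amines were measured in the whole culture by targeted LC-MS/MS. Metabolite fold change and OD595 fold change are relative to plate DMSO controls; n=2 biological replicates. OD fold changes are not clipped, so slightly negative values mean no growth.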

[4] = system: Klebsiella aerogenes DSM 30053; assay: fold change of Putrescine concentration vs plate DMSO controls (fold change (ratio)); higher = more amine produced
[5] = system: Ruminococcus gnavus DSM 108212; assay: fold change of Tryptamine concentration vs plate DMSO controls (fold change (ratio)); higher = more amine produced
[6] = system: Klebsiella aerogenes DSM 30053; assay: fold change of Cadaverine concentration vs plate DMSO controls (fold change (ratio)); higher = more amine produced
[7] = system: Ruminococcus gnavus DSM 108212; assay: fold change of 2-Phenylethylamine concentration vs plate DMSO controls (fold change (ratio)); higher = more amine produced
[8] = system: Clostridium sporogenes DSM 1664; assay: growth (OD595) fold change vs plate DMSO controls (fold change (ratio)); higher = more growth
[9] = system: Clostridium sporogenes DSM 1664; assay: fold change of Tryptamine concentration vs plate DMSO controls (fold change (ratio)); higher = more amine produced

N[C@@H]1CCCCN(c2c(F)cc3c(=O)c(C(=O)O)cn(C4CC4)c3c2Cl)C1 [Besifloxacin hydrochloride]
Conditions	fold change of 2-Phenylethylamine concentration, [7]	fold change of Cadaverine concentration, [6]	fold change of Histamine concentration, [3]	fold change of Putrescine concentration, [4]	fold change of Tryptamine concentration, [5]	growth, [1]	growth, [2]
0.6125 µM	1.11	0.955	1.18	1.02	1.36	1.32	1.01
1.25 µM	0.219	1.03	0.938	1.22	0.415	0.476	0.127
2.5 µM	0.487	1.02	0.188	1.26	0.746	0.277	0.193
5 µM	0.44	1.02	0.166	1.36	0.657	0.336	0.207
10 µM	0.321	1	0.185	1.43	0.451	0.358	0.22
20 µM	0.296	0.981	0.241	1.4	0.385	0.302	0.182

CCn1cc(C(=O)O)c(=O)c2cc(F)c(N3CCNCC3)cc21 [Norfloxacin]
Conditions	fold change of 2-Phenylethylamine concentration, [7]	fold change of Cadaverine concentration, [6]	fold change of Histamine concentration, [3]	fold change of Putrescine concentration, [4]	fold change of Tryptamine concentration, [5]	fold change of Tryptamine concentration, [9]	growth, [1]	growth, [2]	growth, [8]
0.6125 µM	1.3	0.969	1.18	1.02	1.44	0.911	1.14	1.36	1.02
1.25 µM	1.98	1.02	0.775	1.21	2.07	0.589	0.479	0.823	0.736
2.5 µM	1.23	1	0.571	1.29	1.45	0.0459	0.363	0.713	0.00966
5 µM	1.2	1	0.19	1.31	1.32	0.035	0.384	0.628	0.0175
10 µM	1.25	1.01	0.262	1.37	1.41	0.0429	0.385	0.607	0.0423
20 µM	1.38	1	0.237	1.37	1.51	0.0345	0.256	0.425	0.00666

Source: the supplement of paper PMC12494721
